From patent publication US9597407B2, “Targeted antimicrobial moieties” (C3 Jian, Inc., priority 2009, dated 2017)
“Also recorded” adds a separate entry of the source.

Experiments:
bacteria = assay: Binding of targeting peptides to microorganisms (Table 3); details: preferably 1x PBS; for Target(s) (microorganisms bound by the targeting peptide) / Target(s) (microorganism bound by the targeting peptide): peptide binding in aqueous buffers that varied depending on peptide solubility
microorganisms [1] = assay: Morphology, biofilm and growth disruption by peptides (Table 5); format: cell-based; parameters: key: A: Peptide aggregates; B: Less hyphal formation; Clumps; Diffuse clumps and small polyps; F: Diffuse growth; H: Thin; I: Growth inhibition; Microcolony formation; Rippled; Small polyps; Thick; W: Halo formation on top, microlonies on bottom
Excerpt: In certain embodiments peptides that induce alterations in phenotype or other biological activities can also be used as antimicrobial effector moieties.

microorganisms [2] = assay: Peptide activities: binding, antimicrobial, growth or phenotype altering (Table 8)
Excerpt: In certain embodiments, peptides described herein can have multiple activities. Thus for example, a peptide can have both binding/targeting activity and antimicrobial activity. Such peptides can be used, e.g., in a chimeric construct, for any or all of these properties. Thus, for example, a peptide designated “B” in Table 8 can be used as a targeting peptide. If it is also designated G or M it can also be used for antimicrobial activity.

[3] = microorganism the targeting peptide binds, binding in aqueous buffers that varied with peptide solubility
[4] = microorganism bound by the targeting peptide, binding in aqueous buffers chosen by peptide solubility

PF-052 (QELINEAVNLLVKSK; Peptide with targeting and/or antimicrobial activity)
Target(s) (bacteria; [3]): S. epidermidis and M. luteus and E. coli and MRSA and E. faecalis and C. jeikeium and C. jejuni | Organism, effect (microorganisms [1]; C. jeikeium): C. jeikeium (D) | Organism, effect (microorganisms [1]; M. luteus): M. luteus (A) | Organism, effect (microorganisms [1]; MRSA): MRSA (R) | Organism, effect (microorganisms [1]; S. epidermidis): S. epidermidis (S) | Activities (microorganisms [2]): G B

PF-383 (WSEIEINTKQSN; Peptide with targeting and/or antimicrobial activity)
Target(s) (bacteria; [4]): S. epidermidis; also recorded: B. subtilis; also recorded: B. fragilis; also recorded: E. coli; also recorded: C. jejuni | Organism, effect (microorganisms [1]; E. coli): E. coli (R) | Organism, effect (microorganisms [1]; S. epidermidis): S. epidermidis (C) | Activities (microorganisms [2]): G B

PF-444 (MAAKLWEEGKMVYASSASMTKRLKLAMSKV; Peptide with targeting and/or antimicrobial activity)
Target(s) (microorganisms bound by the targeting peptide) (bacteria): M. luteus; also recorded: C. albicans; also recorded: S. pneumoniae; also recorded: C. jeikeium | Organism, effect (morphology, biofilm and growth disruption) (microorganisms [1]; E. coli): E. coli (R) | Organism, effect (morphology, biofilm and growth disruption) (microorganisms [1]; E. faecalis): E. faecalis (C) | Organism, effect (morphology, biofilm and growth disruption) (microorganisms [1]; MRSA): MRSA (C) | Organism, effect (morphology, biofilm and growth disruption) (microorganisms [1]; S. epidermidis): S. epidermidis (C) | Organism, effect (morphology, biofilm and growth disruption) (microorganisms [1]; S. pneumoniae): S. pneumoniae (R) | Activities (microorganisms [2]): G B

PF-616 (chain 1 IVFVVTKEKK; chain 2 IVFVVTKEKK; Peptide with targeting and/or antimicrobial activity)
Target(s) (microorganism bound by the targeting peptide) (bacteria): C. jeikeium | Organism, effect (morphology, biofilm and growth disruption) (microorganisms [1]; E. faecalis): E. faecalis (A) | Organism, effect (morphology, biofilm and growth disruption) (microorganisms [1]; S. epidermidis): S. epidermidis (R) | Activities (microorganisms [2]): G B

PF-760 (chain 1 DHITLDDYEIHDGFNFELYYG; chain 2 DHITLDDYEIHDGFNFELYYG; Peptide with targeting and/or antimicrobial activity)
Target(s) (microorganism bound by the targeting peptide) (bacteria): S. epidermidis; also recorded: M. luteus | Organism, effect (morphology, biofilm and growth disruption) (microorganisms [1]; MRSA): MRSA (M) | Organism, effect (morphology, biofilm and growth disruption) (microorganisms [1]; S. epidermidis): S. epidermidis (M) | Organism, effect (morphology, biofilm and growth disruption) (microorganisms [1]; S. pneumoniae): S. pneumoniae (C) | Activities (microorganisms [2]): G B

PF-389 (GLQFKEIAEEFHITTTALQQWHKDNGYPIYNKNNRK; Peptide with targeting and/or antimicrobial activity)
Target(s) (microorganisms bound by the targeting peptide) (bacteria): S. epidermidis and C. albicans and MRSA and S. pneumoniae and E. faecalis and C. jeikeium | Organism, effect (microorganisms [1]; C. jejuni): C. jejuni (R) | Organism, effect (microorganisms [1]; E. faecalis): E. faecalis (R) | Organism, effect (microorganisms [1]; MRSA): MRSA (C) | Organism, effect (microorganisms [1]; S. epidermidis): S. epidermidis (R) | Organism, effect (microorganisms [1]; S. pneumoniae): S. pneumoniae (D) | Activities (microorganisms [2]): G B

PF-540 (KSILILIKVIFIGQTTIIL; Peptide with targeting and/or antimicrobial activity)
Target(s) (microorganisms bound by the targeting peptide) (bacteria): C. albicans | Organism, effect (morphology, biofilm and growth disruption) (microorganisms [1]; E. coli): E. coli (R) | Organism, effect (morphology, biofilm and growth disruption) (microorganisms [1]; MRSA): MRSA (H) | Organism, effect (morphology, biofilm and growth disruption) (microorganisms [1]; S. epidermidis): S. epidermidis (H) | Organism, effect (morphology, biofilm and growth disruption) (microorganisms [1]; S. pneumoniae): S. pneumoniae (R) | Activities (microorganisms [2]): G B

PF-C072 (KKMFSLIRKVNWIFFILFIVLDLTNVFPLIRTILFAILSRQ; Peptide with targeting and/or antimicrobial activity)
Target(s) (microorganism bound by the targeting peptide) (bacteria): A. naeslundii; also recorded: F. nucleatum; also recorded: P. gingivalis; also recorded: S. mutans; also recorded: T. denticola | Organism, effect (morphology, biofilm and growth disruption) (microorganisms [1]; F. nucleatum): F. nucleatum (T) | Organism, effect (morphology, biofilm and growth disruption) (microorganisms [1]; P. gingivalis): P. gingivalis (T) | Organism, effect (morphology, biofilm and growth disruption) (microorganisms [1]; S. mutans): S. mutans (F) | Activities (microorganisms [2]): G B

PF-553 (LTIVGNALQQKNQKLLLNQKKITSLG; Peptide with targeting and/or antimicrobial activity)
Target(s) (microorganisms bound by the targeting peptide) (bacteria): S. epidermidis and E. coli and P. aeruginosa and C. albicans and MRSA and S. pneumoniae and C. jeikeium | Organism, effect (morphology, biofilm and growth disruption) (microorganisms [1]; B. subtilis): B. subtilis (D) | Organism, effect (morphology, biofilm and growth disruption) (microorganisms [1]; C. jeikeium): C. jeikeium (R) | Organism, effect (morphology, biofilm and growth disruption) (microorganisms [1]; MRSA): MRSA (M) | Organism, effect (morphology, biofilm and growth disruption) (microorganisms [1]; S. pneumoniae): S. pneumoniae (R) | Activities (microorganisms [2]): G B

PF-557 (AANKAREQAAAEAKRKAEEQAR; Peptide with targeting and/or antimicrobial activity)
Target(s) (microorganisms bound by the targeting peptide) (bacteria): S. pneumoniae | Organism, effect (morphology, biofilm and growth disruption) (microorganisms [1]; B. subtilis): B. subtilis (D) | Activities (microorganisms [2]): G B

PF-049 (AYYLKRREEKGK; Peptide with targeting and/or antimicrobial activity)
Target(s) (bacteria; [3]): S. epidermidis and MRSA and C. jeikeium and C. jejuni | Organism, effect (microorganisms [1]; MRSA): MRSA (S) | Activities (microorganisms [2]): G B

PF-363 (SMLSVTVMCLMHASVAANQAMEKKV; Peptide with targeting and/or antimicrobial activity)
Target(s) (bacteria; [4]): B. subtilis; also recorded: E. coli; also recorded: P. aeruginosa; also recorded: C. albicans; also recorded: S. pneumoniae; also recorded: E. faecalis | Organism, effect (microorganisms [1]; C. jejuni): C. jejuni (D) | Organism, effect (microorganisms [1]; E. coli): E. coli (C) | Organism, effect (microorganisms [1]; E. faecalis): E. faecalis (D) | Organism, effect (microorganisms [1]; MRSA): MRSA (H) | Organism, effect (microorganisms [1]; S. epidermidis): S. epidermidis (S) | Organism, effect (microorganisms [1]; S. pneumoniae): S. pneumoniae (R) | Activities (microorganisms [2]): G B

PF-589 (APLRIDEIRNSNVIDEVLDCAPKKQEHFFVVPKIIE; Peptide with targeting and/or antimicrobial activity)
Target(s) (microorganisms bound by the targeting peptide) (bacteria): S. epidermidis and C. albicans and MRSA and S. pneumoniae | Organism, effect (morphology, biofilm and growth disruption) (microorganisms [1]; MRSA): MRSA (M) | Organism, effect (morphology, biofilm and growth disruption) (microorganisms [1]; S. pneumoniae): S. pneumoniae (C) | Activities (microorganisms [2]): G B

PF-C135 (KNTHAYLRVLRLSSLILSYQASVYPLFAYLCQQKDY; Peptide with targeting and/or antimicrobial activity)
Target(s) (microorganism bound by the targeting peptide) (bacteria): A. naeslundii; also recorded: F. nucleatum; also recorded: P. gingivalis; also recorded: S. mutans | Organism, effect (morphology, biofilm and growth disruption) (microorganisms [1]; F. nucleatum): F. nucleatum (C) | Organism, effect (morphology, biofilm and growth disruption) (microorganisms [1]; S. mutans): S. mutans (F) | Activities (microorganisms [2]): G B

PF-746 (chain 1 FLGNSQYFTRK; chain 2 FLGNSQYFTRK; Peptide with targeting and/or antimicrobial activity)
Target(s) (microorganism bound by the targeting peptide) (bacteria): S. epidermidis; also recorded: M. luteus; also recorded: E. coli; also recorded: C. albicans; also recorded: S. pneumoniae; also recorded: E. faecalis; also recorded: C. jeikeium | Organism, effect (morphology, biofilm and growth disruption) (microorganisms [1]; E. coli): E. coli (C) | Organism, effect (morphology, biofilm and growth disruption) (microorganisms [1]; M. luteus): M. luteus (C) | Organism, effect (morphology, biofilm and growth disruption) (microorganisms [1]; MRSA): MRSA (C) | Organism, effect (morphology, biofilm and growth disruption) (microorganisms [1]; P. aeruginosa): P. aeruginosa (A) | Organism, effect (morphology, biofilm and growth disruption) (microorganisms [1]; S. epidermidis): S. epidermidis (C) | Organism, effect (morphology, biofilm and growth disruption) (microorganisms [1]; S. mutans): S. mutans (D) | Organism, effect (morphology, biofilm and growth disruption) (microorganisms [1]; S. pneumoniae): S. pneumoniae (C) | Activities (microorganisms [2]): G B

PF-046 (LDFYLTKHLTLML; Peptide with targeting and/or antimicrobial activity)
Target(s) (bacteria; [3]): E. coli; also recorded: E. faecalis; also recorded: C. jeikeium | Organism, effect (microorganisms [1]; C. jeikeium): C. jeikeium (R) | Organism, effect (microorganisms [1]; MRSA): MRSA (R) | Organism, effect (microorganisms [1]; S. epidermidis): S. epidermidis (C) | Activities (microorganisms [2]): G B

PF-518 (SFYSKYSRYIDNLAGAIFLFF; Peptide with targeting and/or antimicrobial activity)
Target(s) (microorganisms bound by the targeting peptide) (bacteria): S. epidermidis and E. coli and P. aeruginosa and C. albicans and MRSA and S. pneumoniae and E. faecalis | Organism, effect (morphology, biofilm and growth disruption) (microorganisms [1]; E. coli): E. coli (R) | Organism, effect (morphology, biofilm and growth disruption) (microorganisms [1]; E. faecalis): E. faecalis (C) | Organism, effect (morphology, biofilm and growth disruption) (microorganisms [1]; MRSA): MRSA (C) | Organism, effect (morphology, biofilm and growth disruption) (microorganisms [1]; S. epidermidis): S. epidermidis (C) | Organism, effect (morphology, biofilm and growth disruption) (microorganisms [1]; S. pneumoniae): S. pneumoniae (M) | Activities (microorganisms [2]): G B

PF-378 (ESAKSNLNFLMQEEWALFLLL; Peptide with targeting and/or antimicrobial activity)
Target(s) (bacteria; [4]): B. subtilis; also recorded: B. fragilis; also recorded: E. coli; also recorded: P. aeruginosa; also recorded: C. jeikeium | Organism, effect (microorganisms [1]; MRSA): MRSA (M) | Organism, effect (microorganisms [1]; S. epidermidis): S. epidermidis (M) | Activities (microorganisms [2]): G B

PF-439 (RVLVLKKFHGIMDGNRNVAVFFVGQ; Peptide with targeting and/or antimicrobial activity)
Organism, effect (morphology, biofilm and growth disruption) (microorganisms [1]; E. coli): E. coli (R) | Organism, effect (morphology, biofilm and growth disruption) (microorganisms [1]; E. faecalis): E. faecalis (C) | Organism, effect (morphology, biofilm and growth disruption) (microorganisms [1]; MRSA): MRSA (M) | Organism, effect (morphology, biofilm and growth disruption) (microorganisms [1]; S. epidermidis): S. epidermidis (C) | Organism, effect (morphology, biofilm and growth disruption) (microorganisms [1]; S. pneumoniae): S. pneumoniae (R) | Activities (microorganisms [2]): G B

PF-479 (AYILKRREEKNK; Peptide with targeting and/or antimicrobial activity)
Organism, effect (morphology, biofilm and growth disruption) (microorganisms [1]; S. pneumoniae): S. pneumoniae (C) | Activities (microorganisms [2]): G B

PF-465 (KPVGKALEEIADGKIEPVVPKEYLG; Peptide with targeting and/or antimicrobial activity)
Organism, effect (morphology, biofilm and growth disruption) (microorganisms [1]; S. pneumoniae): S. pneumoniae (H) | Activities (microorganisms [2]): G B

B1: PF-748 (peptide)
chain 1: FQGFFDVAVNKWWEEHNKAKLWKNVKGKFLEGEGEEEDDE
chain 2: B1 chain 1
modifications: Peptide with targeting and/or antimicrobial activity
Organism, effect (morphology, biofilm and growth disruption) (microorganisms [1]; S. pneumoniae): S. pneumoniae (H) | Activities (microorganisms [2]): G B
